Source: the supplement of paper PMC10307832

Columns and labels:
Experiment in all cases: relative viability (nuclei count vs DMSO), 5 days (fraction); higher = more cells survive
NCI-H2085 = system: NCI-H2085
In short: (§1)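 Nuclei were stained with Hoechst during a one-step fixation (final 0.05% Triton X-100, 1% formaldehyde, 1 ug/ml Hoechst) carried out 5 days after dosing, then counted on 4× images. The cells, lung cancer lines in 1536-well plates, had been dosed by pin tool the day after seeding with one drug alone or a fixed anchor-drug dose plus five library-drug doses (not always all listed) in √10 steps. Relative viability is the nuclei count in treated wells divided by that in vehicle wells, and each value is the median of duplicate plates.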

NCI-H520 = system: NCI-H520
In short: as §1

SK-MES-1 = system: SK-MES-1
In short: as §1

HCC-827 = system: HCC-827
In short: as §1

NCI-H1395 = system: NCI-H1395
In short: as §1

H3255 = system: H3255
In short: as §1

ChaGo-K-1 = system: ChaGo-K-1
In short: as §1

NCI-H2023 = system: NCI-H2023
In short: as §1

NCI-H838 = system: NCI-H838
In short: as §1

EMC-BAC-2 = system: EMC-BAC-2
In short: as §1

HCC-44 = system: HCC-44
In short: as §1

EPLC-272H = system: EPLC-272H
In short: as §1

LU99A = system: LU99A
In short: as §1

NCI-H1563 = system: NCI-H1563
In short: as §1

NCI-H2087 = system: NCI-H2087
In short: as §1

NCI-H1793 = system: NCI-H1793
In short: as §1

COR-L23 = system: COR-L23
In short: as §1

LCLC-103H = system: LCLC-103H
In short: as §1

NCI-H2405 = system: NCI-H2405
In short: as §1

NCI-H1651 = system: NCI-H1651
In short: as §1

NCI-H1944 = system: NCI-H1944
In short: as §1

NCI-H650 = system: NCI-H650
In short: as §1

COc1cc2nccc(Oc3ccc(NC(=O)Nc4cc(C)on4)c(Cl)c3)c2cc1OC [Tivozanib] + COc1cccc2cc(-c3nc([C@H]4CC[C@H](C(=O)O)CC4)n4ncnc(N)c34)[nH]c12 [OSI-027] (partner 0.5 µM)
relative viability (NCI-H2085; first compound 0.005 µM): 0.757 | relative viability (NCI-H2085; first compound 0.01581 µM): 0.66 | relative viability (NCI-H2085; first compound 0.05 µM): 0.817 | relative viability (NCI-H2085; first compound 0.1581 µM): 0.382 | relative viability (NCI-H2085; first compound 0.5 µM): 0.528 | relative viability (NCI-H520; first compound 0.005 µM): 0.244 | relative viability (NCI-H520; first compound 0.01581 µM): 0.249 | relative viability (NCI-H520; first compound 0.05 µM): 0.267 | relative viability (NCI-H520; first compound 0.1581 µM): 0.167 | relative viability (NCI-H520; first compound 0.5 µM): 0.313 | relative viability (SK-MES-1; first compound 0.005 µM): 0.515 | relative viability (SK-MES-1; first compound 0.01581 µM): 0.573 | relative viability (SK-MES-1; first compound 0.05 µM): 0.7 | relative viability (SK-MES-1; first compound 0.1581 µM): 0.515 | relative viability (SK-MES-1; first compound 0.5 µM): 0.583 | relative viability (HCC-827; first compound 0.005 µM): 0.74 | relative viability (HCC-827; first compound 0.01581 µM): 0.693 | relative viability (HCC-827; first compound 0.05 µM): 0.766 | relative viability (HCC-827; first compound 0.1581 µM): 0.621 | relative viability (HCC-827; first compound 0.5 µM): 0.763 | relative viability (NCI-H1395; first compound 0.005 µM): 0.52 | relative viability (NCI-H1395; first compound 0.01581 µM): 0.635 | relative viability (NCI-H1395; first compound 0.05 µM): 0.648 | relative viability (NCI-H1395; first compound 0.1581 µM): 0.546 | relative viability (NCI-H1395; first compound 0.5 µM): 0.528 | relative viability (H3255; first compound 0.005 µM): 0.571 | relative viability (H3255; first compound 0.01581 µM): 0.597 | relative viability (H3255; first compound 0.05 µM): 0.634 | relative viability (H3255; first compound 0.1581 µM): 0.47 | relative viability (H3255; first compound 0.5 µM): 0.556 | relative viability (ChaGo-K-1; first compound 0.005 µM): 0.601 | relative viability (ChaGo-K-1; first compound 0.01581 µM): 0.555 | relative viability (ChaGo-K-1; first compound 0.05 µM): 0.605 | relative viability (ChaGo-K-1; first compound 0.1581 µM): 0.552 | relative viability (ChaGo-K-1; first compound 0.5 µM): 0.432 | relative viability (NCI-H2023; first compound 0.005 µM): 0.393 | relative viability (NCI-H2023; first compound 0.01581 µM): 0.386 | relative viability (NCI-H2023; first compound 0.05 µM): 0.381 | relative viability (NCI-H2023; first compound 0.1581 µM): 0.272 | relative viability (NCI-H2023; first compound 0.5 µM): 0.324 | relative viability (NCI-H838; first compound 0.005 µM): 0.364 | relative viability (NCI-H838; first compound 0.01581 µM): 0.404 | relative viability (NCI-H838; first compound 0.05 µM): 0.357 | relative viability (NCI-H838; first compound 0.5 µM): 0.38 | relative viability (EMC-BAC-2; first compound 0.005 µM): 0.372 | relative viability (EMC-BAC-2; first compound 0.01581 µM): 0.385 | relative viability (EMC-BAC-2; first compound 0.05 µM): 0.38 | relative viability (EMC-BAC-2; first compound 0.1581 µM): 0.279 | relative viability (EMC-BAC-2; first compound 0.5 µM): 0.334 | relative viability (HCC-44; first compound 0.005 µM): 0.483 | relative viability (HCC-44; first compound 0.01581 µM): 0.544 | relative viability (HCC-44; first compound 0.05 µM): 0.485 | relative viability (HCC-44; first compound 0.1581 µM): 0.41 | relative viability (HCC-44; first compound 0.5 µM): 0.464 | relative viability (EPLC-272H; first compound 0.005 µM): 0.268 | relative viability (EPLC-272H; first compound 0.01581 µM): 0.318 | relative viability (EPLC-272H; first compound 0.05 µM): 0.299 | relative viability (EPLC-272H; first compound 0.1581 µM): 0.244 | relative viability (EPLC-272H; first compound 0.5 µM): 0.294 | relative viability (LU99A; first compound 0.005 µM): 0.292 | relative viability (LU99A; first compound 0.01581 µM): 0.302 | relative viability (LU99A; first compound 0.05 µM): 0.301 | relative viability (LU99A; first compound 0.1581 µM): 0.268 | relative viability (LU99A; first compound 0.5 µM): 0.238 | relative viability (NCI-H1563; first compound 0.005 µM): 0.751 | relative viability (NCI-H1563; first compound 0.01581 µM): 0.773 | relative viability (NCI-H1563; first compound 0.05 µM): 0.784 | relative viability (NCI-H1563; first compound 0.1581 µM): 0.718 | relative viability (NCI-H1563; first compound 0.5 µM): 0.817 | relative viability (NCI-H2087; first compound 0.005 µM): 0.461 | relative viability (NCI-H2087; first compound 0.01581 µM): 0.6 | relative viability (NCI-H2087; first compound 0.05 µM): 0.558 | relative viability (NCI-H2087; first compound 0.1581 µM): 0.376 | relative viability (NCI-H2087; first compound 0.5 µM): 0.44 | relative viability (NCI-H1793; first compound 0.005 µM): 0.225 | relative viability (NCI-H1793; first compound 0.01581 µM): 0.219 | relative viability (NCI-H1793; first compound 0.05 µM): 0.344 | relative viability (NCI-H1793; first compound 0.1581 µM): 0.249 | relative viability (NCI-H1793; first compound 0.5 µM): 0.235 | relative viability (COR-L23; first compound 0.005 µM): 0.74 | relative viability (COR-L23; first compound 0.01581 µM): 0.715 | relative viability (COR-L23; first compound 0.05 µM): 0.799 | relative viability (COR-L23; first compound 0.1581 µM): 0.617 | relative viability (COR-L23; first compound 0.5 µM): 0.647 | relative viability (LCLC-103H; first compound 0.005 µM): 0.475 | relative viability (LCLC-103H; first compound 0.01581 µM): 0.481 | relative viability (LCLC-103H; first compound 0.05 µM): 0.423 | relative viability (LCLC-103H; first compound 0.1581 µM): 0.369 | relative viability (LCLC-103H; first compound 0.5 µM): 0.498 | relative viability (NCI-H2405; first compound 0.005 µM): 0.631 | relative viability (NCI-H2405; first compound 0.01581 µM): 0.716 | relative viability (NCI-H2405; first compound 0.05 µM): 0.684 | relative viability (NCI-H2405; first compound 0.1581 µM): 0.526 | relative viability (NCI-H2405; first compound 0.5 µM): 0.577 | relative viability (NCI-H1651; first compound 0.005 µM): 0.759 | relative viability (NCI-H1651; first compound 0.01581 µM): 0.721 | relative viability (NCI-H1651; first compound 0.05 µM): 0.737 | relative viability (NCI-H1651; first compound 0.1581 µM): 0.497 | relative viability (NCI-H1651; first compound 0.5 µM): 0.67 | relative viability (NCI-H1944; first compound 0.005 µM): 0.396 | relative viability (NCI-H1944; first compound 0.01581 µM): 0.431 | relative viability (NCI-H1944; first compound 0.05 µM): 0.449 | relative viability (NCI-H1944; first compound 0.1581 µM): 0.344 | relative viability (NCI-H1944; first compound 0.5 µM): 0.447 | relative viability (NCI-H650; first compound 0.005 µM): 0.489 | relative viability (NCI-H650; first compound 0.01581 µM): 0.577 | relative viability (NCI-H650; first compound 0.05 µM): 0.613 | relative viability (NCI-H650; first compound 0.1581 µM): 0.44 | relative viability (NCI-H650; first compound 0.5 µM): 0.398
